Literature values, collected in the CATMoS acute toxicity set (Mansouri et al. 2021).
Where “and” joins values, the source holds several entries; their conditions need not be identical. Identical values can stand only once. *1 amine or outer side, *2 acyl side, *3 side chain or, on linkers, in order; H or OH if unused. Where a SMILES comes first, the peptide text is derived from it. Bridges are numbered along the chain shown (N, C = ends). Roman numbers before positions name the chains, in order. [ ]: non-standard residue; d: D form. Actinocin(9to1) = Cc1c2oc3c(C)ccc(C(=O)[*:1])c3nc-2c(C(=O)[*:2])c(N)c1=O; NMeV = CN[C@H](C(=O)O)C(C)C; Sar = CNCC(=O)O

Test: rat acute oral toxicity
Details: in vivo

| SMILES | LD50 |
| --- | --- |
| CCCCCCCCSC(=O)Oc1cc(Cl)nnc1-c1ccccc1 | 1970 mg/kg |
| CC(C1=C(CCN(C)C)Cc2ccccc21)c1ccccn1 (stereo not drawn) | 618 mg/kg |
| COP(=O)(SC)SC | 26 mg/kg |
| CN(CCCCCCN(C)C(=O)Oc1ccc[n+](C)c1)C(=O)Oc1ccc[n+](C)c1 | 10 mg/kg |
| CCCCCCCCCCCC[N+](C)(C)Cc1ccc(Cl)c(Cl)c1 | 730 mg/kg |
| O=C1c2ccccc2C(=O)c2c1cccc2S(=O)(=O)O | 20000 mg/kg |
| COCCN(C(=O)CCl)c1c(C)cccc1C | 1600 mg/kg |
| O=[N+]([O-])c1cccc2nc3ccccc3c(NCCN(CCO)CCO)c12 | 176 mg/kg |
| CCCC1OCS/C1=N\OC(O)=NC (stereo not drawn) | 83 mg/kg |
| O=C1NCc2ccccc2O1 | 1050 mg/kg |
| CNN | 58 mg/kg |
| CCCCOC(=O)CCC(=O)OCCCC | 8000 mg/kg |
| CCN(CC)CCN1C(=O)CN=C(c2ccccc2F)c2cc(Cl)ccc21 | 879 mg/kg and 980 mg/kg and 978 mg/kg |
| CN(Sc1ccccc1)C(=O)Oc1cccc2c1OC(C)(C)C2 | 25 mg/kg |
| NCCNCc1ccccc1O | 3700 mg/kg |
| CC(C)(CO)NCC(O)c1ccccc1 (stereo not drawn) | 2080 mg/kg |
| O=NN1CC=CCO1 | 900 mg/kg |
| CC(=O)N[C@@H](CC(C)C)C(=O)N[C@@H](CC(C)C)C(=O)N[C@H](C=O)CCCNC(=N)N | 720 mg/kg |
| COc1ccc2c3c1O[C@H]1[C@@H](O)C=C[C@H]4[C@@H](C2)[N@@+](C)([O-])CC[C@@]341 | 1600 mg/kg |
| CC(C(O)c1ccccc1)N(C)CCC#N (stereo not drawn) | 940 mg/kg |
| O=C(CCCN1CCC2(CCCCC2)CC1)c1ccc(F)cc1 | 200 mg/kg |
| CCOC(=O)C1=CN(C(=O)c2ccccc2)C2CCCC(C)N2C1=O (stereo not drawn) | 1640 mg/kg |
| CCC(O)CCO (stereo not drawn) | 20000 mg/kg |
| CNC(=O)Oc1ccccc1C(C)C | 450 mg/kg |
| CN(C)P(=O)(N(C)C)N(C)C | 2650 mg/kg |

| SMILES | LD50 |
| --- | --- |
| Cc1c(Nc2ncnc3ccccc23)c(=O)n(C)n1-c1ccccc1 | 369 mg/kg |
| CCc1ccc(C(=O)C(C)CN2CCCCC2)cc1 (stereo not drawn) | 1000 mg/kg |
| CCOP(=O)(NC(C)C)SCC(=O)NCOC (stereo not drawn) | 100 mg/kg |
| O=C(O)CS(=O)(=O)O | 3160 mg/kg |
| OCCN1CC1 | 74 mg/kg |
| CC(C)c1cccc(OC(=O)N(C)C)c1 | 160 mg/kg |
| CC(=O)Nc1cccc2c3c([nH]c12)CCCC3 | 3860 mg/kg |
| Cc1cc(C)cc(OCC2CNC(=O)O2)c1 (stereo not drawn) | 775 mg/kg |
| Cc1ccc(SN(C)C(=O)Oc2cccc3c2OC(C)(C)C3)cc1 | 25 mg/kg |
| CC(c1ccc(C(F)(F)F)nc1)S(C)(=O)=NC#N (stereo not drawn) | 1000 mg/kg |
| COc1ccc2c(c1)c(CC(=O)OC(C)c1ccccc1)c(C)n2C(=O)c1ccc(Cl)cc1 (stereo not drawn) | 425 mg/kg |
| CN(c1ccc(Cl)cc1)S(=O)(=O)c1ccc(Cl)cc1 | 2500 mg/kg |
| C=C(Cl)C(=O)Nc1ccc(OC)cc1 | 82 mg/kg |
| CC(C)Cc1ccc(C(C)C(=O)O)cc1 (stereo not drawn) | 636 mg/kg |
| CC(C)COC(=O)COc1ccc(Cl)cc1Cl | 300 mg/kg |
| O=C(O)c1ccccc1Nc1cccc(Cl)c1CO | 2400 mg/kg |
| CC=Cc1ccc(OP(=S)(OC)OC)c(OC)c1 | 250 mg/kg |
| N=C(N)SCc1ccc([N+](=O)[O-])cc1 | 300 mg/kg |
| Oc1ccc(Nc2ccccc2)cc1 | 3300 mg/kg |
| Fc1c(Cl)c(Cl)c2nc(C(F)(F)F)[nH]c2c1Cl | 2.39 mg/kg |
| CCO[Si](CCCS)(OCC)OCC | 6110 mg/kg |
| CC(Oc1ccc(Oc2ccc(Cl)cc2Cl)cc1)C(=O)O (stereo not drawn) | 563 mg/kg |
| CCC(C)(C)c1ccc(OCCCCN)c(C(C)(C)CC)c1 | 800 mg/kg |
| CC1(C)C2CC=C(CCO)C1C2 (stereo not drawn) | 890 mg/kg |
| S=C=Nc1ccc(N=C=S)cc1 | 21 mg/kg |

| SMILES | LD50 |
| --- | --- |
| FC(Cl)(Cl)c1ccccc1 | 450 mg/kg |
| O=C(O)Cc1sc(-c2ccccc2)nc1-c1ccc(Cl)cc1 | 409 mg/kg |
| NCCCNCCNCCCN | 1200 mg/kg |
| CCOP(=S)(OCC)Oc1cc(C)n(CC)c(=O)c1 | 7070 mg/kg |
| Cn1c(=O)c2c(ncn2CC(=O)O)n(C)c1=O | 900 mg/kg |
| COc1cc(N)cn[n+]1-c1ccccc1 | 1330 mg/kg |
| COC(=O)N(CCCl)N=O | 20 mg/kg |
| COP(=S)(OC)SCc1ccc(SP(=S)(OC)OC)cc1 | 265 mg/kg |
| NC(N)=Nc1nc(CSCCC(N)=NS(N)(=O)=O)cs1 | 4050 mg/kg |
| Clc1cccc(N2CCNCC2)n1 | 174 mg/kg |
| CC[C@@]1(O)C[C@H](O[C@H]2C[C@H](N(C)C)[C@H](O[C@H]3C[C@H](O)[C@H](O[C@H]4CCC(=O)[C@H](C)O4)[C@H](C)O3)[C@H](C)O2)c2c(cc3c(c2O)C(=O)c2c(O)cccc2C3=O)[C@H]1C(=O)OC | 58.6 mg/kg |
| CCCCn1c(=O)n(CCC)c(=O)c2[nH]c(C)nc21 | 15 mg/kg |
| CCCCCCCCOP(OCC(CC)CCCC)Oc1ccccc1 (stereo not drawn) | 7000 mg/kg |
| CCCCC(CC)COC(C)=O (stereo not drawn) | 3000 mg/kg |
| CNC(C)Cc1ccccc1 (racemic) | 29 mg/kg |
| CS/C(C)=N/OC(=O)N(C)SN(C)C(=O)O/N=C(\C)SC | 66 mg/kg |
| CNC[C@H](O)c1ccc(O)c(O)c1 | 30 mg/kg and 24 mg/kg |
| CC(C)C12C=CC(C)(CC1)OO2 (stereo not drawn) | 200 mg/kg |
| CNC(=O)c1cc(Cl)ccn1 | 500 mg/kg |
| C#CCOP(=O)(OCCC)c1ccccc1 (stereo not drawn) | 362 mg/kg |
| C=CC(COC)c1ccccc1OC(=O)NC (stereo not drawn) | 100 mg/kg |
| ClCC1OC1CCl (stereo not drawn) | 710 mg/kg |
| CC(=O)c1cccc(N=Nc2ccc(N(C)C)cc2)c1 | 4820 mg/kg |
| CCCCC(CC)CN(CCO)CC(CC)CCCC (stereo not drawn) | 4920 mg/kg |
| Cc1ccc(N)cc1Br | 180 mg/kg |

| SMILES | LD50 |
| --- | --- |
| COCCN1C(=O)C2C3C=C(C(O)(c4ccccc4)c4ccccn4)C(C3=C(c3ccccc3)c3ccccn3)C2C1=O (stereo not drawn) | 9 mg/kg |
| O[C@@H](c1cc(C(F)(F)F)nc2c(C(F)(F)F)cccc12)[C@H]1CCCCN1 | 880 mg/kg |
| CN(C)C(=O)Nc1cccc(OC(=O)NC(C)(C)C)c1 | 3000 mg/kg |
| CCCCNC(=O)n1c(NC(=O)OC)nc2ccccc21 | 10000 mg/kg |
| O=C(/C=C/C=C/c1ccc2c(c1)OCO2)N1CCCCC1 | 514 mg/kg |
| CCC(=O)O[C@]1(c2ccccc2)CCN(C)C[C@@H]1C | 90 mg/kg |
| CCOP(=O)(OCC)C(SCC)(P(=O)(OCC)OCC)P(=O)(OCC)OCC | 7.25 mg/kg |
| Cl[C@H]1[C@H](Cl)[C@@H](Cl)[C@H](Cl)[C@H](Cl)[C@H]1Cl (racemic) | 177 mg/kg |
| BrC=CBr | 117 mg/kg and 62 mg/kg |
| S=c1[nH]c2ccc(Cl)cc2[nH]1 | 150 mg/kg |
| CC1C(C)(C)C2=C(c3ncncc3CC2)C1(C)C (stereo not drawn) | 500 mg/kg |
| CC(CCC(=O)O)C(=O)O (stereo not drawn) | 300 mg/kg |
| COC(F)(F)C(Cl)Cl | 3600 mg/kg |
| NCC1CC2CCC1C2 (stereo not drawn) | 1410 mg/kg |
| COCCc1ccccc1 | 4100 mg/kg |
| CNC(=O)Oc1c(C(C)C)ccc(C)c1N(C)C | 67 mg/kg |
| Cc1c2oc3c(C)ccc(C(=O)N[C@@H]4C(=O)N[C@H](C(C)C)C(=O)N5CCC[C@H]5C(=O)N(C)CC(=O)N(C)[C@@H](C(C)C)C(=O)O[C@@H]4C)c3nc-2c(C(=O)N[C@@H]2C(=O)N[C@H](C(C)C)C(=O)N3CCC[C@H]3C(=O)N(C)CC(=O)N(C)[C@@H](C(C)C)C(=O)O[C@@H]2C)c(N)c1=O (I: T[dV]P[Sar][NMeV] / II: T[dV]P[Sar][NMeV]; ester I:1-I:C, II:1-II:C; linker I:N-II:N via Actinocin(9to1)) | 7.2 mg/kg |
| ClC=Cc1ccccc1 | 5200 mg/kg |
| Cc1cc(C)c(C)cc1C | 6990 mg/kg |
| CCOC(=O)CCC(=O)OCC | 8530 mg/kg |
| CCCCOC(=O)C(Cl)(Cl)C(Cl)=C(Cl)Cl | 2090 mg/kg |
| C[C@H](CCC(=O)O)[C@H]1CC[C@H]2[C@@H]3C(=O)C[C@@H]4CC(=O)CC[C@]4(C)[C@H]3CC(=O)[C@]12C | 3760 mg/kg and 4000 mg/kg |
| c1ccc(C2CN3CCSC3=N2)cc1 (stereo not drawn) | 180 mg/kg and 480 mg/kg |
| CCN=C1SC(=NOC(=O)NC)C(C)(C)S1 | 6.3 mg/kg |
| CC(C(=O)O)c1ccc2oc3ccccc3c(=O)c2c1 (stereo not drawn) | 720 mg/kg |

| SMILES | LD50 |
| --- | --- |
| Cc1nc(Cn2cnc3c2c(=O)n(C)c(=O)n3C)no1 | 1550 mg/kg |
| CCSC(=O)COc1ccc(Cl)cc1C | 790 mg/kg |
| CCOCCOCCOC(C)=O | 11000 mg/kg |
| FC(F)(F)c1nc2c(Br)c(Cl)c(Cl)c(Br)c2[nH]1 | 3.43 mg/kg |
| O=[N+]([O-])c1ccc(F)cc1F | 200 mg/kg |
| NCCNCCNCCO | 4630 mg/kg |
| CCN(CCO)c1ccccc1 | 1640 mg/kg |
| O=c1oc2cc(O)ccc2s1 | 633 mg/kg |
| CCN(C(C)=O)c1c(I)cc(I)c(OCCOC(C)C(=O)O)c1I (stereo not drawn) | 1600 mg/kg |
| CCSC(SCC)c1ccccc1OC(=O)NC | 500 mg/kg |
| CN(C)N=Nc1ccc(Cl)cc1 | 362 mg/kg |
| Cc1cn[nH]c1 | 534 mg/kg |
| CCOP(=O)(O)C(N)=O | 10100 mg/kg |
| CN1CCN(c2cc3c(nn2)Oc2ccccc2N3C)CC1 | 1000 mg/kg |
| COC(COC(N)=O)C1=C(N2CC2)C(=O)C(C)=C(N2CC2)C1=O (stereo not drawn) | 27.3 mg/kg |
| O=C(Nc1nnc(CCN2c3ccccc3Sc3ccccc32)s1)c1ccccc1 | 3220 mg/kg |
| Nc1ccc(F)c(F)c1F | 699 mg/kg |
| C=CCc1cc(OC)c2c(c1)OCO2 | 4260 mg/kg |
| Cc1ccc(S(=O)(=O)NC(=O)NN2CC3CCCC3C2)cc1 (stereo not drawn) | 3000 mg/kg |
| O=c1[nH]c2ccc(Cl)cc2o1 | 1200 mg/kg |
| CO[C@H]1[C@@H](O)C[C@H](O[C@H]2[C@@H](O)C[C@H](O[C@H]3[C@@H](O)C[C@H](O[C@H]4CC[C@@]5(C)[C@H](CC[C@@H]6[C@@H]5C[C@@H](O)[C@]5(C)[C@@H](C7=CC(=O)OC7)CC[C@]65O)C4)O[C@@H]3C)O[C@@H]2C)O[C@@H]1C | 8.3 mg/kg |
| Cn1c(=O)c2c(ncn2CCOC(=O)C(C)(C)Oc2ccc(Cl)cc2)n(C)c1=O | 17000 mg/kg |
| C=CC(=O)OCCN(C)C | 455 mg/kg |
